For experiment [1], the target named is T1, human Adenosine A2a receptor (Homo sapiens, UniProt P29274).
T1 construct: expressed in transfected cells; host or cells: CHO cell membranes
The experiment can be described thus: Adenosine receptor TR-FRET binding assay (CA200645 displacement), A2a. Particulars: 100 nM CA200645, CHO cell membranes, 2 hours at room temperature. For orientation: In TR-FRET formats the signal depends on donor and acceptor labels being close together.

The target of experiment [2] is T2, human Adenosine A2b receptor (Homo sapiens, UniProt P29275).
T2 construct: expressed in transfected cells; host or cells: CHO cell membranes
T2 sequence (P29275 1-332): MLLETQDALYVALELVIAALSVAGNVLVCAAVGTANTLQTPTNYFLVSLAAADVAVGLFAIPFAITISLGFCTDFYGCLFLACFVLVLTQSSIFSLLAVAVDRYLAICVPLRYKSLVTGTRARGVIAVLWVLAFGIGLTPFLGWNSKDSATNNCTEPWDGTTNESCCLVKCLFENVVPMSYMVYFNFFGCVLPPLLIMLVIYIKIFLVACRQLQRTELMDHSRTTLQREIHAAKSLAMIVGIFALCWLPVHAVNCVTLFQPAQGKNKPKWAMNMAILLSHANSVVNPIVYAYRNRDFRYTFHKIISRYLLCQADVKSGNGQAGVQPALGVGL
The experiment can be described thus: Adenosine receptor TR-FRET binding assay (CA200645 displacement), A2b. To be noted: 30 nM CA200645, CHO cell membranes, 2 hours at room temperature.
Experimental: (§1) All FRET binding experiments were conducted at room temperature in white 384-well plates, in assay binding buffer containing 1×LabMed (Cisbio, France), 100 μg/mL saponin, 1% DMSO and 0.02% pluronic acid. Binding of the fluorescently labelled Adenosine receptor antagonist XAC (CA200645, FRET acceptor) to terbium-labelled A1, A2a, A2b and A3 adenosine receptors (FRET donors) was detected by time-resolved FRET due to the close proximity of the donor and acceptor in a binding event. To investigate the ability of unlabelled test compounds to bind to Adenosine A1, A2a, A2b and A3 receptors, dose response curves were constructed that determined the ability of a range of concentrations to inhibit the binding of 30 nM CA200645 to the A2b receptor and 100 nM CA200645 to the A1, A2a, and A3 receptor.
(§2) Serial dilution (1:3 dilutions) of test compounds in neat DMSO and transfer of a 400 nL sample of test compound into the assay plate was carried out using the Mosquito (TTP Labtech, UK). The compound samples were incubated for 2 hours at room temperature with a fixed concentration of CA200645 defined for each receptor (see above) and CHO cell membranes containing the human Adenosine A1 (0.5 μg/well), A2a (0.3 μg/well), A2b (1 μg/well) or A3 (1 μg/well) receptor in 40 μL of assay buffer. Total and non-specific binding of CA200645 was determined in the absence and presence of 10 μM XAC, respectively. Following 2 hours incubation, the level of CA200645 binding was detected on a Pherastar FSX (BMG Labtech, Germany) using standard TR-FRET settings. The terbium donor was excited with three laser flashes at a wavelength of 337 nm, and donor and acceptor emission was detected at 620 nm and 665 nm wavelengths, respectively. FRET ratios were obtained by multiplying the acceptor/donor ratio value by 10,000. Specific binding was determined by subtracting the non-specific binding FRET ratio from the total binding FRET ratio. Compound IC50 curves were analysed using GraphPad Prism 7.0 (GraphPad, USA) and Ki affinity values were determined from the obtained IC50 values using the method of Cheng and Prusoff.

A further experiment concerns human PBMCs. In words: CD3/CD28 stimulated IL-2 release NECA reversal assay in human PBMCs.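 Note: dose-response as % inhibition where 100% equals no-NECA control wells with CD3/CD28.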 Type of experiment: cell-based. To be noted: PBMC, CD3/CD28 antibody stimulated, 1 uM NECA, 24 hours, IL-2 in culture supernatant. As to the method:
Blood is drawn from healthy volunteers using sodium citrate as the anticoagulant (0.3% final concentration). After centrifugation of the blood over Histopaque-1077, PBMCs are collected from the Histopaque/plasma interface and washed twice in PBS (300 g for 10 mins at room temp). Cells are plated at 50,000 cells/well in 150 μl RPMI/10% FCS in 96-well cell culture plates that have been precoated with 1 ug/ml CD3 antibody. 50 μl diluted compound mix is added to the cells, to obtain final concentrations of 1 ug/ml CD28 antibody, 1 uM NECA and 0.003-10 μM adenosine receptor antagonist. Assay plates are incubated for 24 hours at 37° C. in a humidified incubator. Culture supernatant is tested for IL-2 levels using the human IL-2 Tissue Culture Kit (Meso Scale Discovery).

Experiment [3] concerns CD8+ T cells in human whole blood. In words: Measurement of pCREB in CD8+ T cells in human whole blood. Particulars: T-cell, 1 h; heparinised human whole blood, rolipram, 3 μM NECA, 60 min, phospho-CREB in CD8+ T cells by FACS. The format is cell-based. As to the method: Heparinised human whole blood was pre-incubated at 37° C. with serial dilutions of A2a antagonists for 20 min. and the phosphodiesterase inhibitor rolipram to amplify the pCREB response. The adenosine receptor agonist NECA is then added at a final concentration of 3 μM and following a 60 min incubation the blood is fixed and red blood cells lysed. White blood cells are isolated, permeabilized and stained with directly conjugated fluorescent antibodies to phospho-CREB (Alexa Fluor 488) and CD8 (Alexa Fluor 647) and the level of phospho-CREB in CD8+ T cells is measured by FACS using a BD Accuri C6 Flow Cytometer.

Experiment [4] addresses T3, human Adenosine A1 receptor (Homo sapiens, UniProt P30542).
T3 sequence (P30542 1-326): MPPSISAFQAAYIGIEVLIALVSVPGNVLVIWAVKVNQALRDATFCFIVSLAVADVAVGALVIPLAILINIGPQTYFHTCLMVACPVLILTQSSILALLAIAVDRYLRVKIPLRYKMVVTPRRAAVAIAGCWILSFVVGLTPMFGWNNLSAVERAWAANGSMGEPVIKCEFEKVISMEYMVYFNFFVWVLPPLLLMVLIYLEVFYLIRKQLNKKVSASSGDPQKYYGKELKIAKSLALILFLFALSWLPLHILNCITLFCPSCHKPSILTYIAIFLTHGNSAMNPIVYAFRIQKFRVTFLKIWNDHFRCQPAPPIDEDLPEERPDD
The experiment can be described thus: Adenosine receptor TR-FRET binding assay (CA200645 displacement), A1.
Experimental: as §1, §2

Experiment [5] concerns the target T4, human Adenosine A3 receptor (Homo sapiens, UniProt P0DMS8).
T4 sequence (P0DMS8 1-318): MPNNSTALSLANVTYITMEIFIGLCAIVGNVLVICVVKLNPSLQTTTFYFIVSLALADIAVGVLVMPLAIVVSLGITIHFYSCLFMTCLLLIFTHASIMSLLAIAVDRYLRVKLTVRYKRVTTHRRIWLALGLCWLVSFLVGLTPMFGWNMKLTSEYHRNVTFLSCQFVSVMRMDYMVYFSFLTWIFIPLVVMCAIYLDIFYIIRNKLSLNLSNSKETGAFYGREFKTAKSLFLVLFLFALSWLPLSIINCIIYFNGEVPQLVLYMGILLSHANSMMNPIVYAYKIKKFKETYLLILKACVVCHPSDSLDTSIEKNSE
The experiment can be described thus: Adenosine receptor TR-FRET binding assay (CA200645 displacement), A3.

T1 sequence (P29274 whole entry): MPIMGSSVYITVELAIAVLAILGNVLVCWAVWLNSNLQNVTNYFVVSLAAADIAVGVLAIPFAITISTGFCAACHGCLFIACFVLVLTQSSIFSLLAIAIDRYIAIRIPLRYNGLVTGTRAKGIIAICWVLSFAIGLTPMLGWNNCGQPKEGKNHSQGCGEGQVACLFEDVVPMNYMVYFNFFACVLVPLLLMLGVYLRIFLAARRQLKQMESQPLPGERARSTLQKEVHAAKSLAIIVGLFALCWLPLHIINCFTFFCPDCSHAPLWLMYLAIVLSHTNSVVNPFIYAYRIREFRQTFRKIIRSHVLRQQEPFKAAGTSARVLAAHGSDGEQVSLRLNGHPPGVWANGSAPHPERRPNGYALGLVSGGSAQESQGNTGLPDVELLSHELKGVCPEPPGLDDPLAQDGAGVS

For `N#Cc1cccc(-c2nn3ccc(N)nc3c2-c2ccncc2)c1` [Example 1, 3-[5-Amino-3-(4-pyridyl)pyrazolo[1,5-a]pyrimidin-2-yl]benzonitrile], the Ki – broadly, the dissociation constant of the complex between target and ligand, obtained from inhibition or displacement – in experiment [1] is 2.1 nM; in experiment [2] it was 2 nM; in experiment [4] it was 3 nM. The IC50 (commonly the concentration at which inhibition is half-maximal) in the experiment with human PBMCs was determined as 305 nM; in experiment [3], 2010 nM.
Take `Cc1cc(-c2c(-c3cccc(C#N)c3)nn3ccc(N)nc23)cc(Cl)n1` [Example 1.4, 3-[5-Amino-3-(2-chloro-6-methyl-4-pyridyl)pyrazolo[1,5-a]pyrimidin-2-yl]benzonitrile]: the Ki in experiment [1] was 2.6 nM; in experiment [2] it was 4 nM; in experiment [4] it was 66 nM; in experiment [5] it was above 1000 nM. For the same compound, the values for the IC50 (in the experiment with human PBMCs; in experiment [3]) were 37 nM and 590 nM, respectively.
On to `Cc1cc(-c2c(-c3cccc(C#N)c3)nn3ccc(N)nc23)cc(C)n1` [Example 1.6, 3-[5-amino-3-(2,6-dimethyl-4-pyridyl)pyrazolo[1,5-a]pyrimidin-2-yl]benzonitrile], for which the Ki in experiment [1] is 2.2 nM; in experiment [2], 9 nM; in experiment [4] it was 37 nM; in experiment [5], above 1000 nM. Besides, the results for the IC50 (in the experiment with human PBMCs; in experiment [3]) were 57 nM and 250 nM, respectively.
In the case of `Cc1cc(-c2c(-c3cccc(C#N)c3)nn3ccc(NCC(C)(C)O)nc23)cc(Cl)n1` [Example 2, 3-[3-(2-Chloro-6-methyl-4-pyridyl)-5-[(2-hydroxy-2-methyl-propyl)amino]pyrazolo[1,5-a]pyrimidin-2-yl]benzonitrile], the Ki in experiment [1] is 3.9 nM; in experiment [2], 67 nM; in experiment [4] it was 366 nM; in experiment [5], above 1000 nM. Further, the IC50 in the experiment on human PBMCs is 84 nM; in experiment [3] it was 420 nM.
As for `Cc1cc(-c2c(-c3cccc(C#N)c3)nn3ccc(NC45CC(O)(C4)C5)nc23)cc(Cl)n1` [Example 2.1], the Ki was 0.4 nM in experiment [1], 3 nM in experiment [2], 21 nM in experiment [4] and above 1000 nM in experiment [5]. In addition, the IC50 turned out to be 12 nM in the experiment with human PBMCs and 1440 nM in experiment [3].
As to `Cc1cc(-c2c(-c3cccc(C#N)c3)nn3ccc(N4CCOC[C@H]4C(=O)O)nc23)cc(Cl)n1` [Example 2.3], the Ki in experiment [1] worked out at 0.6 nM; in experiment [2], 4 nM; in experiment [4], 21 nM; in experiment [5], 1280 nM. The half-inhibitory concentration (IC50) came to 12 nM in the experiment with human PBMCs and 1250 nM in experiment [3].
In the case of `CCN1CCC(Nc2ccn3nc(-c4cccc(C#N)c4)c(-c4cc(C)nc(Cl)c4)c3n2)CC1` [Example 2.4], the Ki is 0.7 nM in experiment [1], 2 nM in experiment [2], 53 nM in experiment [4] and above 1000 nM in experiment [5]. The IC50 was 32 nM in the experiment with human PBMCs and 2820 nM in experiment [3].
In the case of `Cc1cc(-c2c(-c3cccc(C#N)c3)nn3ccc(NCC4(O)COC4)nc23)cc(Cl)n1` [Example 2.8], the Ki in experiment [1] was 1.3 nM; in experiment [2], 3 nM; in experiment [4] it was 62 nM; in experiment [5] it was above 1000 nM. The IC50 in the experiment on human PBMCs turned out to be 41 nM; in experiment [3] it was 610 nM.
For the compound `Cc1cc(-c2c(-c3cccc(C#N)c3)nn3ccc(NCCC(C)(C)O)nc23)cc(Cl)n1` [Example 2.9], the Ki in experiment [1] is 1.4 nM; in experiment [2], 19 nM; in experiment [4] it was 31 nM; in experiment [5] it was above 1000 nM. Further, the IC50 was 19 nM in the experiment on human PBMCs and 70 nM in experiment [3].
Consider `Cc1cc(-c2c(-c3cccc(C#N)c3)nn3ccc(N[C@H]4C[C@@H](O)C4)nc23)cc(Cl)n1` [Example 2.10], for which the Ki in experiment [1] came to 1.4 nM; in experiment [2], 10 nM; in experiment [4], 119 nM; in experiment [5], 1550 nM. Also, the figures for the IC50 (with human PBMCs; in experiment [3]) were 48 nM and 1190 nM, respectively.
For the compound `Cc1cc(-c2c(-c3cccc(C#N)c3)nn3ccc(NC4CCN(S(C)(=O)=O)CC4)nc23)cc(Cl)n1` [Example 2.11], the Ki is 1.5 nM in experiment [1], 34 nM in experiment [2], 176 nM in experiment [4] and above 1000 nM in experiment [5]. In addition, the IC50 with human PBMCs is 5 nM; in experiment [3], 1330 nM.
Take `Cc1cc(-c2c(-c3cccc(C#N)c3)nn3ccc(N4CC5CCC(C4)O5)nc23)cc(Cl)n1` [Example 2.12]: the Ki in experiment [1] amounted to 1.5 nM; in experiment [2] it was 22 nM; in experiment [4], 87 nM; in experiment [5], 2330 nM. Besides, the IC50 with human PBMCs stood at 32 nM; in experiment [3] it was 4190 nM.
Turning to `Cc1cc(-c2c(-c3cccc(C#N)c3)nn3ccc(N[C@@H](C)C(C)(C)O)nc23)cc(Cl)n1` [Example 2.15], the inhibition constant Ki in experiment [1] was 2 nM; in experiment [2], 239 nM; in experiment [4] it was 896 nM; in experiment [5], above 1000 nM. The IC50 in the experiment with human PBMCs was found to be 59 nM; in experiment [3], 920 nM.
Consider `Cc1cc(-c2c(-c3cccc(C#N)c3)nn3ccc(N[C@@H]4COC[C@@H]4O)nc23)cc(Cl)n1` [Example 2.16], for which the Ki is 2.1 nM in experiment [1], 4 nM in experiment [2], 232 nM in experiment [4] and above 1000 nM in experiment [5]. In addition, the figures for the IC50 (in the experiment on human PBMCs; in experiment [3]) were 7 nM and 390 nM, respectively.
Consider `Cc1cc(-c2c(-c3cccc(C#N)c3)nn3ccc(N4CCO[C@@H](C(=O)O)C4)nc23)cc(Cl)n1` [Example 2.24], for which the Ki in experiment [1] turned out to be 6.9 nM; in experiment [2], 58 nM; in experiment [4], 255 nM. In addition, the figures for the IC50 (with human PBMCs; in experiment [3]) were 92 nM and 2760 nM, respectively.
Consider `Cc1cc(-c2c(-c3cccc(C#N)c3)nn3ccc(N[C@H](C)CO)nc23)cc(Cl)n1` [Example 3.3], for which the Ki in experiment [1] is 0.3 nM; in experiment [2], 2 nM; in experiment [5], above 1000 nM. In addition, the IC50 was found to be 1 nM with human PBMCs and 210 nM in experiment [3].
Regarding `Cc1cc(-c2c(-c3cccc(C#N)c3)nn3ccc(C(=O)NCC4(C)COC(=O)N4)nc23)cc(C)n1` (centres unmarked) [Example 92.21], the Ki in experiment [1] is 0.7 nM; in experiment [2], 17 nM; in experiment [4] it was 288 nM; in experiment [5] it was above 1000 nM. In experiment [3], this compound returned an IC50 of 110 nM.
For `Cc1cc(-c2c(-c3cccc(C#N)c3)nn3ccc(C(=O)N[C@H]4CC[C@](C)(O)CC4)nc23)cc(C)n1` [Example 92.22] the same measures were 0.6 nM, 29 nM, 204 nM, above 1000 nM and 370 nM.
On the same counts, the results for `Cc1cc(-c2c(-c3cccc(C#N)c3)nn3ccc(C(=O)N[C@H]4C[C@@](C)(O)C4)nc23)cc(C)n1` [Example 92.24] are 1.3 nM, 23 nM, 347 nM, above 1000 nM and 330 nM.
On to `Cc1cc(-c2c(-c3cccc(C#N)c3)nn3ccc(C(=O)N[C@H]4CN(C)C[C@H]4O)nc23)cc(C)n1` [Example 92.34], for which the Ki in experiment [1] is 1.5 nM; in experiment [2], 32 nM; in experiment [4], 428 nM; in experiment [5], above 1000 nM. For the same compound, the half-inhibitory concentration (IC50) in experiment [3] was 140 nM.

(Values after patent publication US20230203041A1, “ANTAGONISTS OF THE ADENOSINE A2A RECEPTOR” (AdoRx Therapeutics Limited, priority 2020, published 2023).)
